Values quoted from earlier work as cited in patent publication US10392669B2, “Methods and systems for determination of an effective therapeutic regimen and drug discovery” (DNA-SEQ, INC., priority 2014, dated 2019).
“Also recorded” adds a separate entry of the source.

What was measured:
[1] = test system: catalytic cores of kinases; settings: cancer patients, bracketed literature reference; for Activating Mutations: known activating mutations within the kinase catalytic core listed for the drug; for Resistant Mutations: known resistance mutations within the kinase catalytic core listed for the drug
ERBB2 T798I = ERBB2 T798I (Homo sapiens, UniProt P04626, T798I); settings: Gene ERBB2, Mutation T798I; full finding: Not reported to be in a before/after study, but does cause drug resistance
kinase DFG motif = settings: crystal structure library

| SMILES | Activating Mutations [1] | Resistant Mutations [1] | also measured |
| --- | --- | --- | --- |
| O=C(c1ccc(F)c(F)c1Nc1ccc(I)cc1F)N1CC(O)([C@@H]2CCCCN2)C1 [Cobimetinib] | Braf: V600 mutation [9] |  |  |
| C[C@@H](Oc1cc(-c2cnn(C3CCNCC3)c2)cnc1N)c1c(Cl)ccc(F)c1Cl [Crizotinib] | ALK: I117IN, R1275Q [10] |  |  |
| C#Cc1cccc(Nc2ncnc3cc(OCCOC)c(OCCOC)cc23)c1 [Erlotinib] | EGFR: L858R [12] |  |  |
| COc1cc2ncnc(Nc3ccc(F)c(Cl)c3)c2cc1OCCCN1CCOCC1 [Gefitinib] | EGFR: L858R, L861Q [14] |  |  |
| Cc1ccc(NC(=O)c2ccc(CN3CCN(C)CC3)cc2)cc1Nc1nccc(-c2cccnc2)n1 [Imatinib] |  | KIT: T670I; also recorded: ABL: T315I [17] |  |
| CS(=O)(=O)CCNCc1ccc(-c2ccc3ncnc(Nc4ccc(OCc5cccc(F)c5)c(Cl)c4)c3c2)o1 [Lapatinib] |  | HER2: L755S [18] | Finding (ERBB2 T798I): Not reported to be in a before/after |
| COc1cc2nccc(Oc3ccc(NC(=O)NC4CC4)c(Cl)c3)c2cc1C(N)=O [Lenvatinib] | RET: C634W, M918T [19] |  |  |
| Cc1cn(-c2cc(NC(=O)c3ccc(C)c(Nc4nccc(-c5cccnc5)n4)c3)cc(C(F)(F)F)c2)cn1 [Nilotinib] | BCR/ABL: F317L [3] |  | DFG conformation bound (kinase DFG motif): binds the DFG out conformation |
| C=CC(=O)Nc1cc(Nc2nccc(-c3cn(C)c4ccccc34)n2)c(OC)cc1N(C)CCN(C)C [Osimertinib] | EGFR: T790M [20] |  |  |
| CNC(=O)c1cc(Oc2ccc(NC(=O)Nc3ccc(Cl)c(C(F)(F)F)c3)cc2)ccn1 [Sorafenib] | PDGFRA: T674I [26] | FIP1LI-PDGFRA: D842V |  |
